Test results published in BigSolDB 2.1.

With `O=C(O)CC(O)C(=O)O` (stereo unspecified) the solubility (mole fraction) (in ethanol, 298.15 K) was 0.109, the solubility (mole fraction) (in ethanol, 303.15 K) was 0.12 and the solubility (mole fraction) (in ethanol, 308.15 K) was 0.136. For the same molecule, the solubility (mole fraction) (in ethanol, 313.15 K) was 0.148, the solubility (mole fraction) (in ethanol, 318.15 K) was 0.165 and the solubility (mole fraction) (in ethanol, 323.15 K) was 0.184. For the same molecule, the solubility (mole fraction) (in ethanol, 328.15 K) was 0.207, the solubility (mole fraction) (in ethanol, 333.15 K) was 0.227 and the solubility (mole fraction) (in water, 298.15 K) was 0.15. The solubility (mole fraction) (in water, 303.15 K) was 0.161, the solubility (mole fraction) (in water, 308.15 K) was 0.178 and the solubility (mole fraction) (in water, 313.15 K) was 0.196. For the same molecule, the solubility (mole fraction) (in water, 318.15 K) was 0.213, the solubility (mole fraction) (in water, 323.15 K) was 0.229 and the solubility (mole fraction) (in water, 328.15 K) was 0.249. It also gave a solubility (mole fraction) (in water, 333.15 K) of 0.271.
